Results reported in US7759345B2, “Antitumoral derivatives of ET-743” (priority 2001, dated 2010).
pIC50: −log10 of the molar value. Read-outs that look alike come from different tables or passages of the source.

Experiments:
[1] = tested on: P-388; test: Inhibition of cell growth by counting cells, P-388; format: cell-based, mouse; conditions: Mus musculus, P388, 72 h, read-out: IC50 (molar) P-388
Protocol: (§1) 1°.—Inhibition of Cell Growth by Counting Cells.
(§2) This form of the assay employs 24 well multidishes of 16 mm diameter (Bergeron, 1984; Schroeder, 1981). The tumor cell lines employed are: P-388 (ATCC CCL 46), suspension culture of a lymphoid neoplasm from a DBA/2 mouse; A-549 (ATCC CCL 185), monolayer culture of a human lung carcinoma; HT-29 (ATCC HTB-38), monolayer culture of a human colon carcinoma; MEL-28 (ATCC HTB-72), monolayer culture of a human melanoma and DU-145 (ATCC HTB-81), monolayer culture of a human prostate carcinoma.
(§3) Cells were maintained, in logarithmic phase of growth in Eagle's Minimum Essential Medium, with Earle's Balanced Salts, with non-essential amino acids, with 2.0 mM L-Glutamine, without sodium bicarbonate (EMEM/neaa), supplemented with 10% Fetal Calf Serum (FCS), 10^−2 M. sodium bicarbonate and 0.1 U/l penicillin G+0.1 g/l streptomycin sulfate. For the experiments, cells are harvested from subconfluent cultures using trypsin and resuspended in fresh medium before plating.
(§4) P-388 cells were seeded into 16 mm diameter wells at 1×10^4 cells per well in 1 ml aliquots of EMEM 5% FCS containing different concentrations of the sample to be tested. A separate set of cultures without drug was seeded as control of growth, to ensure that cells remained in exponential phase of growth. All determinations are carrying out in duplicate.
(§5) For quantifying the activity, after the incubation time, cells are trypsinized and counted in a Coulter Counter ZM. All counts (net cells per well), represent the average of duplicate wells. % G, percent of growth relative to cultures without drug. The results of these assays are used to generate dose-response curves from which more precise IC50 values are determined (sample concentration which produces 50% cell growth inhibition).
(§6) Obtained results may predict the usefulness of a certain drug as a potential cancer treatment. For this technique, compounds which show IC50 values smaller than 1 μg/ml are selected to continue with further studies. IC50's data allow to predict that not only could a drug be cystostatic, but also it could have a potential in terms of tumor reduction.

[2] = tested on: HT-29; test: Inhibition of cell growth by counting cells, HT-29; format: cell-based, human; conditions: Homo sapiens, HT-29, 72 h, read-out: IC50 (molar) HT-29
Protocol: as §1, §2, §3
as §4, with “A-549, HT-29, MEL-28 and DU-145” for “P-388”, “duplicate. After three days of incubation at 37° C., 5% CO2 in a 98% humid atmosphere cells were stained with 0.1% crystal violet. An approximately IC50 was determined by comparing the growth in wells with drug to the growth in wells control.” for “duplicate.”
as §5, §6

[3] = tested on: MEL-28; test: Inhibition of cell growth by counting cells, MEL-28; format: cell-based, human; conditions: Homo sapiens, SK-MEL-28, 72 h, read-out: IC50 (molar) MEL-28
Protocol: as §1, §2, §3
as §4, with “A-549, HT-29, MEL-28 and DU-145” for “P-388”, “duplicate. After three days of incubation at 37° C., 5% CO2 in a 98% humid atmosphere cells were stained with 0.1% crystal violet. An approximately IC50 was determined by comparing the growth in wells with drug to the growth in wells control.” for “duplicate.”
as §5, §6

[4] = tested on: A-549; test: Inhibition of cell growth by counting cells, A-549; format: cell-based, human; conditions: Homo sapiens, A549, 72 h, read-out: IC50 (molar) A-549
Protocol: as §1, §2, §3
as §4, with “A-549, HT-29, MEL-28 and DU-145” for “P-388”, “duplicate. After three days of incubation at 37° C., 5% CO2 in a 98% humid atmosphere cells were stained with 0.1% crystal violet. An approximately IC50 was determined by comparing the growth in wells with drug to the growth in wells control.” for “duplicate.”
as §5, §6

Row | Compound | pIC50 ([1]; three days of incubation) | pIC50 ([2]; three days of incubation) | pIC50 ([3]; three days of incubation) | pIC50 ([4]; three days of incubation) | pIC50 [1] | pIC50 [2] | pIC50 [3] | pIC50 [4]
1 | COc1cc2c(cc1OC(C)=O)CCN[C@]21CS[C@@H]2c3c(OC(C)=O)c(C)c4c(c3[C@H](COC1=O)N1C2[C@H]2c3c(cc(C)c(OC)c3O)C[C@@H]([C@@H]1C#N)N2C)OCO4 (some centres unmarked) [Compound 2] | 9.83 | 9.83 | 9.83 | 9.83 | – | – | – | –
2 | COc1cc2c(cc1OC(C)=O)CCN[C@]21CS[C@@H]2c3c(OC(C)=O)c(C)c4c(c3[C@H](COC1=O)N1C2[C@H]2c3c(cc(C)c(OC)c3OC(C)=O)C[C@@H]([C@@H]1C#N)N2C)OCO4 (some centres unmarked) [Compound 6] | 8.85 | 8.53 | 8.53 | 8.53 | – | – | – | –
3 | C=CCOC(=O)Oc1cc2c(cc1OC)[C@@]1(CS[C@@H]3c4c(OC(C)=O)c(C)c5c(c4[C@H](COC1=O)N1C3[C@H]3c4c(cc(C)c(OC)c4O)C[C@@H]([C@@H]1C#N)N3C)OCO5)NCC2 (some centres unmarked) [Compound 25] | 9.85 | 9.85 | 9.85 | 9.85 | – | – | – | –
4 | C=CCOC(=O)Oc1cc2c(cc1OC)[C@@]1(CS[C@@H]3c4c(OC(C)=O)c(C)c5c(c4[C@H](COC1=O)N1C3[C@H]3c4c(cc(C)c(OC)c4OC(=O)OCC=C)C[C@@H]([C@@H]1C#N)N3C)OCO5)NCC2 (some centres unmarked) [Compound 26] | 8.27 | 8.27 | 8.27 | 8.27 | – | – | – | –
5 | CCOc1cc2c(cc1OC)[C@@]1(CS[C@@H]3c4c(OC(C)=O)c(C)c5c(c4[C@H](COC1=O)N1C3[C@H]3c4c(cc(C)c(OC)c4O)C[C@@H]([C@@H]1C#N)N3C)OCO5)NCC2 (some centres unmarked) [Compound 37] | 9.90 | 9.90 | 9.90 | 9.90 | – | – | – | –
6 | CCCOc1cc2c(cc1OC)[C@@]1(CS[C@@H]3c4c(OC(C)=O)c(C)c5c(c4[C@H](COC1=O)N1C3[C@H]3c4c(cc(C)c(OC)c4O)C[C@@H]([C@@H]1C#N)N3C)OCO5)NCC2 (some centres unmarked) [Compound 39] | 9.21 | 9.21 | 9.21 | 9.21 | – | – | – | –
7 | COc1cc2c(cc1O)CCN[C@]21CS[C@@H]2c3c(OC(C)=O)c(C)c4c(c3[C@H](COC1=O)N1C2[C@H]2c3c(cc(C)c(OC)c3OC(C)=O)C[C@@H]([C@@H]1C#N)N2C)OCO4 (some centres unmarked) [Compound 51] | 9.21 | 8.91 | 8.91 | 8.91 | – | – | – | –
8 | COc1cc2c(cc1OP(=O)(OCc1ccccc1)OCc1ccccc1)CCN[C@]21CS[C@@H]2c3c(OC(C)=O)c(C)c4c(c3[C@H](COC1=O)N1C2[C@H]2c3c(cc(C)c(OC)c3O)C[C@@H]([C@@H]1C#N)N2C)OCO4 (some centres unmarked) [Compound 53] | – | – | – | – | 8.31 | 8.01 | 8.01 | 8.01
9 | COc1cc2c(cc1O)CCN(C)[C@]21CS[C@@H]2c3c(OC(C)=O)c(C)c4c(c3[C@H](COC1=O)N1C2[C@H]2c3c(cc(C)c(OC)c3O)C[C@@H]([C@@H]1C#N)N2C)OCO4 (some centres unmarked) [Compound 54] | 9.89 | 9.89 | 9.89 | 9.89 | – | – | – | –
10 | CCCN1CCc2cc(O)c(OC)cc2[C@@]12CS[C@@H]1c3c(OC(C)=O)c(C)c4c(c3[C@H](COC2=O)N2C1[C@H]1c3c(cc(C)c(OC)c3O)C[C@@H]([C@@H]2C#N)N1C)OCO4 (some centres unmarked) [Compound 56] | 9.91 | 9.91 | 9.91 | 9.91 | – | – | – | –
11 | COc1cc2c(cc1OC(C)=O)CCN[C@]21CS[C@@H]2c3c(OC(C)=O)c(C)c4c(c3[C@H](COC1=O)N1C2[C@H]2c3c(cc(C)c(OC)c3OC(C)=O)C[C@@H]([C@@H]1O)N2C)OCO4 (some centres unmarked) [Compound 80] | 8.53 | 8.23 | 8.23 | 8.23 | – | – | – | –
12 | COc1cc2c(cc1O)CCN[C@]21CS[C@@H]2c3c(OC(C)=O)c(C)c4c(c3[C@H](COC1=O)N1C2[C@H]2c3c(cc(C)c(OC)c3OC(C)=O)C[C@@H]([C@@H]1O)N2C)OCO4 (some centres unmarked) [Compound 96] | 8.90 | 8.90 | 8.90 | 8.90 | – | – | – | –
13 | CCCCCCCC(=O)Oc1c(C)c2c(c3c1[C@H]1SC[C@]4(NCCc5cc(O)c(OC)cc54)C(=O)OC[C@@H]3N3C1[C@H]1c4c(cc(C)c(OC)c4OC(=O)CCCCCCC)C[C@@H]([C@@H]3O)N1C)OCO2 (some centres unmarked) [Compound 169] | – | 8.99 | – | 8.99 | – | – | – | –
14 | CCOc1c(C)c2c(c3c1[C@H]1SC[C@]4(NCCc5cc(O)c(OC)cc54)C(=O)OC[C@@H]3N3C1[C@H]1c4c(cc(C)c(OC)c4O)C[C@@H]([C@@H]3O)N1C)OCO2 (some centres unmarked) [Compound 177] | – | 9.87 | – | 9.87 | – | – | – | –
15 | CCCOc1c(C)c2c(c3c1[C@H]1SC[C@]4(NCCc5cc(O)c(OC)cc54)C(=O)OC[C@@H]3N3C1[C@H]1c4c(cc(C)c(OC)c4O)C[C@@H]([C@@H]3O)N1C)OCO2 (some centres unmarked) [Compound 178] | – | 8.88 | – | 8.88 | – | – | – | –
16 | C=CCOc1c(C)c2c(c3c1[C@H]1SC[C@]4(NCCc5cc(O)c(OC)cc54)C(=O)OC[C@@H]3N3C1[C@H]1c4c(cc(C)c(OC)c4OCC=C)C[C@@H]([C@@H]3O)N1C)OCO2 (some centres unmarked) [Compound 179] | – | 7.90 | – | 7.90 | – | – | – | –
17 | COc1cc2c(cc1O)CCN[C@]21CS[C@@H]2c3c(OCc4ccccc4)c(C)c4c(c3[C@H](COC1=O)N1C2[C@H]2c3c(cc(C)c(OC)c3O)C[C@@H]([C@@H]1O)N2C)OCO4 (some centres unmarked) [Compound 180] | – | 9.21 | – | 9.21 | – | – | – | –
18 | COc1cc2c(cc1O)CCN[C@]21CS[C@@H]2c3c(OCc4ccccc4)c(C)c4c(c3[C@H](COC1=O)N1C2[C@H]2c3c(cc(C)c(OC)c3OCc3ccccc3)C[C@@H]([C@@H]1O)N2C)OCO4 (some centres unmarked) [Compound 181] | – | 7.95 | – | 7.95 | – | – | – | –
19 | COc1cc2c(cc1O)CCN[C@]21CS[C@@H]2c3c(O)c(C)c4c(c3[C@H](COC1=O)N1C2[C@@H]2N[C@@H](Cc3cc(C)c(OC)c(O)c32)[C@@H]1C#N)OCO4 (some centres unmarked) [Compound 184] | 9.16 | 9.16 | 9.16 | 9.16 | – | – | – | –
20 | COc1cc2c(cc1O)CCN(C)[C@]21CS[C@@H]2c3c(OC(C)=O)c(C)c4c(c3[C@H](COC1=O)N1C[C@@H]3Cc5cc(C)c(OC)c(O)c5[C@H](C21)N3C)OCO4 (some centres unmarked) [Compound 185] | 7.88 | 7.88 | 7.88 | 7.88 | – | – | – | –
21 | COc1cc2c(cc1O)CCN[C@]21CS[C@@H]2c3c(OC(C)=O)c(C)c4c(c3[C@H](COC1=O)N1C2[C@@H]2N[C@@H](Cc3cc(C)c(OC)c(O)c32)[C@@H]1C#N)OCO4 (some centres unmarked) [Compound 186] | 9.80 | 9.80 | 9.80 | 9.80 | – | – | – | –
22 | C=CCOC(=O)Oc1cc2c(cc1OC)[C@@]1(CS[C@@H]3c4c(OC(C)=O)c(C)c5c(c4[C@H](COC1=O)N1C3[C@H]3c4c(cc(C)c(OC)c4O)C[C@@H]([C@@H]1C#N)N3C(=O)OCC=C)OCO5)NCC2 (some centres unmarked) [Compound 187] | 8.97 | 8.97 | 8.97 | 8.97 | – | – | – | –
23 | COc1cc2c(cc1O)CCN[C@]21CS[C@@H]2c3c(OC(C)=O)c(C)c4c(c3[C@H](COC1=O)N1C2[C@H]2c3c(cc(C)c(OC)c3O)C[C@@H]([C@@H]1C#N)N2C(=O)OC(C)(C)C)OCO4 (some centres unmarked) [Compound 188] | 9.23 | 9.23 | 9.23 | 9.23 | – | – | – | –
24 | CCCCCCCC(=O)Oc1cc2c(cc1OC)[C@@]1(CS[C@@H]3c4c(OC(C)=O)c(C)c5c(c4[C@H](COC1=O)N1C3[C@@H]3N[C@@H](Cc4cc(C)c(OC)c(OC(=O)CCCCCCC)c43)[C@@H]1O)OCO5)NCC2 (some centres unmarked) [Compound 214] | – | 8.30 | – | 8.30 | – | – | – | –
25 | CCCCCCCCCCCCCCCC(=O)Oc1cc2c(cc1OC)[C@@]1(CS[C@@H]3c4c(OC(C)=O)c(C)c5c(c4[C@H](COC1=O)N1C3[C@@H]3N[C@@H](Cc4cc(C)c(OC)c(OC(=O)CCCCCCCCCCCCCCC)c43)[C@@H]1O)OCO5)NCC2 (some centres unmarked) [Compound 216] | – | 7.09 | – | 7.09 | – | – | – | –
26 | COc1cc2c(cc1O)CCN[C@]21CS[C@@H]2c3c(OC(C)=O)c(C)c4c(c3[C@H](COC1=O)N1C2[C@H]2c3c(cc(C)c(O)c3O)C[C@@H]([C@@H]1O)N2C)OCO4 (some centres unmarked) [Compound 221] | – | 8.87 | – | 8.87 | – | – | – | –
